Patent US8183006B2, “Screening method for identifying new aminoacyl-tRNA synthetase inhibitors” (Fundacio Privada Parc Cientific de Barcelona, priority 2006, dated 2012)

Tests used:
[1] = tested on: isoleucyl-tRNA synthetases (IleRS) from Gram-positive infectious pathogens; details: cited from earlier work
[2] = limits use to topical applications; cited from earlier work
[3] = tested on: HeLa cells expressing S. pneumoniae editing-defective isoleucyl-tRNA synthetase (IleRSTA); assay: valine toxicity in transfected HeLa cells, cell death by propidium iodide staining (flow cytometry); assay type: cell-based, human; details: IleRSTA-expressing HeLa cells compared to wild type IleRS or GFP expressing HeLa cells; FIG. 2
Procedure: Cell death was measured by propidium iodide staining. Axis y represents the percentage of cell survival (abbreviated as “% C.S.”) and axis x represents the concentration of valine (mM).
For transient transfections, 20 μg of each DNA construct was added to 500 μl water containing 252 mM CaCl2. Then, 500 μl of 2×Hepes-buffered-saline buffer (280 mM NaCl, 10 mM KCl, 1.5 mM Na2HPO4, 50 mM HEPES, 12 mM dextrose, pH 7.1) was added to the DNA mixture drop by drop. 16 hours after adding this transfection mixture to the cells, the medium containing DNA was removed and new medium was added. After 24 hours, transfected cells were used for experimentation.
10 μg/ml propidium iodide was used for determination of cell viability in transiently GFP fusion proteins transfected HeLa cells. Stained cells were analyzed immediately using a Coulter Epics XL (Beckman Coulter) and analyzed using System II software.
To assess whether the expression S. pneumoniae mutated editing domain GFPIleRS has a toxic effect in a mammalian system in the presence of increasing concentrations of valine in the media, GFP, S. pneumoniae wild type (IleRS) and mutated editing domain (IleRSTA) were expressed in HeLa cells.

Row | Structure (SMILES) | selectivity for pathogen vs. mammalian IleRS [1] [fold] | systemic bioavailability [2] | sensitivity to cell death (% cell survival) with increasing concentrations of valine in the media [3]
1 | C/C(=C\C(=O)OCCCCCCCCC(=O)O)C[C@@H]1OC[C@H](C[C@@H]2O[C@H]2[C@@H](C)[C@H](C)O)[C@@H](O)[C@H]1O [Pseudomonic acid] | ~8000 | lack of systemic bioavailability | –
2 | CC(C)[C@H](N)C(=O)O [valine] | – | – | higher sensitivity
